Where a SMILES comes first, the peptide text is derived from it. The star is where a group is joined. Cbz = O=C(OCc1ccccc1)*
How the values were obtained:
EFHD2 [1] = assay: Western blot of EFHD2 expression in cancer cells; assay type: cell-based, human; settings: H1299 and F4 cells
Description: Cell lines and cell culture. Human lung adenocarcinoma cells A549 and H1299 were obtained from the American Type Culture Collection (ATCC, Maryland, USA). Human lung adenocarcinoma cell lines CL1-0 were from National Taiwan University Hospital, Taipei, Taiwan. Cell line CL1-5-F4 (F4) was established by selection of increasingly invasive cell populations from CL1-0 in according to procedures described by Chu Y W et al (Am J Respir Cell Mol Biol (1997) 17:353-360). H1299 and F4 cells were cultured in DMEM/F-12 media (Invitrogen). A549 and CL1-0 cells were maintained in RPMI 1640 media (Invitrogen). All culture media were supplemented with 10% fetal bovine serum and 1% antibiotics (GIBCO). All cells were grown in a humidified atmosphere of 5% CO2 and 95% air at 37° C. Western blot analysis. Proteins were separated using 10% or 12.5% SDS-PAGE and transferred onto a PVDF membrane via electroblotting at […] at 4° C. for 3 hr in 25 mmol/L Tris-HCl, 197 mmol/L glycine, and 13.3% (v/v) methanol. Then, 5% (w/v) skim milk in TBST was used for the blocking reaction, and the primary antibodies were incubated at room temperature overnight. After TBST washes, horseradish peroxidase-conjugated secondary antibodies were further incubated at room temperature for 1 hr. […] The primary antibodies used in this study included EFHD2 (ab106667; abcam), E-cadherin (#5296; Cell Signaling), vimentin (#3932; Cell Signaling), CAV1 (#3238; Cell Signaling), and β-actin (ab8226; abeam). […] Results are illustrated in FIG. 4.

F4 cells = assay: Sensitization of F4 cells to cisplatin by 2-APAs; assay type: cell-based, human; settings: F4 cells pre-treated with 20 μM 2-APA, data not shown
From the text: In this example, the effect of 2-APAs (e.g., ibuprofen, flurbiprofen, naproxen and ketoprofen) and cisplatin on F4 cells were investigated.

EFHD2 [2] = assay: Ibuprofen-induced EFHD2 degradation with proteasome/lysosome inhibitors, western blot; assay type: cell-based, human; settings: for effect on ibuprofen-induced EFHD2 degradation: H1299 cells pretreated 0.5 hr, then 600 μM ibuprofen
Description: FIG. 6. Ibuprofen activates both proteasomal and lysosomal degradation of EFHD2. H1299 cells were pretreated with MG132 and/or Baf-A1 for 0.5 hr, then followed by the treatment of 600 μM ibuprofen for the indicated time. EFHD2 expression was determined by western blot assay.
Western blot analysis. Proteins were separated using 10% or 12.5% SDS-PAGE and transferred onto a PVDF membrane via electroblotting at 400V at 4° C. for 3 hr in 25 mmol/L Tris-HCl, 197 mmol/L glycine, and 13.3% (v/v) methanol. Then, 5% (w/v) skim milk in TBST was used for the blocking reaction, and the primary antibodies were incubated at room temperature overnight. After TBST washes, horseradish peroxidase-conjugated secondary antibodies were further incubated at room temperature for 1 hr. […] The primary antibodies used in this study included EFHD2 (ab106667; abcam), E-cadherin (#5296; Cell Signaling), vimentin (#3932; Cell Signaling), CAV1 (#3238; Cell Signaling), and β-actin (ab8226; abeam).
As ubiquitin-proteasome pathway and autophagy-lysosome pathway are two major systems responsible for cellular protein degradation, we then investigated whether any of the two systems has involved in ibuprofen-mediated EFHD2 degradation.

H1299 cells [3] = assay: MTT cell survival, H1299 shGFP / shEFHD2 cells; assay type: cell-based, human
Description: MTT assay was used to determine cell survival ratio in the control cells (H1299^shGFP) or cells having the expression of EFHD2 being knock-out via interference RNA (H1299^shEFHD2) with or without the treatment of ibuprofen and/or cisplatin.
(§1) MTT assay. […] The absorbance of the solution at 570 nm was measured by spectrophotometer.
In this example, the mechanism of ibuprofen and its combination with a chemotherapeutic drug (i.e., cisplatin) were investigated via comparing their actions on the survival of H1299 cells in the presence or absence of EFHD2. To this purpose, H1299 cells were pre-treated with the present shRNA (i.e., H1299^shEFHD2) to knockdown the expression of EFHD2 in H1299 cells in accordance with procedures described in Example 1; and the control cells were pre-treated with shGFP. Results are depicted in FIG. 7.

H1299 cells [4] = assay: H1299 xenograft mouse model, tumor size; assay type: in vivo, BALB/c nude mice; settings: cisplatin 5 mg/Kg injection once per week for 3 weeks; ibuprofen 25 mg/Kg orally; alone or in combination
From the text: Animals. All procedures (2017-305) involving animal research were approved by the Institutional Animal Care and Use Committee (IACUC) at Chinese Medical University Hospital (CMUH) (Taichung, Taiwan). 5-week-old male BALB/c nude mice (18 to 25 g) were obtained from the National Laboratory Animal Center (Taipei, Taiwan). Mice were maintained in an environment under a 12: 12 hr light/dark cycle with access to food and water ad libitum.
BALB/c nude mice were orthotropically xenografted with H1299 cells (1×10^6 cells) by stereotactic injection in the back. Mouse tumor progression (including growth and metastasis) was measured by IVIS weekly until week 7.
In this example, in vivo effect of the combined treatment of ibuprofen and cisplatin was investigated via the xenograft mouse model established in accordance with the procedures described in the “Materials and methods” section. For treatment purpose, mice were treated with cisplatin (5 mg/Kg, via injection, once per week for 3 weeks) and ibuprofen (25 mg/Kg, orally fed, on the day when cisplatin was injected, and 1 day prior to, and 1 day after the cisplatin injection), alone or in combination. Mice were then sacrificed and the tumors were isolated and further analyzed. Results are depicted in FIG. 9.

H1299 and F4 cells = assay: Migration and invasion by matrigel transwell system; assay type: cell-based, human
Description: FIG. 5 Ibuprofen reduced EFHD2 expression in cancer cells. (A) The effect of various doses of ibuprofen on EFHD2 in H1299 and F4 cells were respectively determined by Western blot assay; (B) The effects of ibuprofen on the invasion and migration ability of H1299 and F4 cells were analyzed by matrigel transwell system. Wound healing assay. The in vitro migration assay was performed using a Culture-Insert well (ibidi GmbH, German/v). Cancer cells (4.5×10^4 cells) were cultured in suitable media in the device for 24 hr. After removal of the Culture-Insert, cancer cells were cultured for an additional 8 hr. The migration distance of cancer cells was recorded, and the migration area was measured using ImageJ software. Matrigel invasion assay. For in vitro invasion assay, cancer cells (1.5×10^5 cells in 200 μL) were suspended in the upper half of a PET membrane transwell insert chamber (BD Biosciences), which was coated with Matrigel (1 mg/mL; BD Biosciences), on a 24-well plate. Medium supplemented with 10% FBS was added as a chemoattractant to the lower half After incubation at 37° C. for 24 hr, cancer cells that passed through the insert were fixed with 3.7% formalin (Sigma-Aldrich) and stained with 0.1% crystal violet (Sigma-Aldrich).

EFHD2 mRNA = assay: qPCR of EFHD2 mRNA levels with or without ibuprofen; assay type: cell-based, human; settings: data not shown
A549 cells = assay: MTT cell survival, A549 pcDNA / pEFHD2 cells; assay type: cell-based, human
Description: FIG. 8 Susceptibility of cancer cells lacking endogenous EFHD2 to chemotherapeutic drug is not enhanced by ibuprofen. MTT assay was used to determine cell survival ratio in the control cells (A549^pcDNA) or cells transfecting with vectors that carrying exogenous EFHD2 gene (A549^pEFHD2) with or without the treatment of ibuprofen and/or cisplatin.
as §1
In this example, instead of knocking down the endogenous EFHD2 expression via interference RNA, human lung adenocarcinoma cells A549 having low level of endogenous EFHD2 were used to further elucidate the action of ibuprofen (i.e., enhancing the susceptibility of cancer cells to chemotherapeutic drugs). Results are illustrated in FIG. 8.

| Compound | expression of EFHD2 (EFHD2 [1]) | sensitivity to subsequent cisplatin treatment (cell death) (F4 cells) | further results |
| --- | --- | --- | --- |
| CC(=O)Oc1ccccc1C(=O)O [aspirin] | possessed no such effect | – | – |
| O=C(c1ccccc1)c1ccc2n1CCC2C(=O)O (stereo not shown) [ketorolac] | possessed no such effect | – | – |
| CC(C(=O)O)c1cccc(C(=O)c2ccccc2)c1 (stereo not shown) [ketoprofen] | effective in suppressing the expression of EFHD2 | more sensitive to the subsequent treatment of cisplatin | – |
| Cc1cccc(Nc2ccccc2C(=O)O)c1C [mefenamic acid] | possessed no such effect | – | – |
| CC(C)C[C@@H](C=O)NC(=O)[C@H](CC(C)C)NC(=O)[C@H](CC(C)C)NC(=O)OCc1ccccc1 [MG132] (Cbz-Leu-Leu-Leu-aldehyde) | – | – | effect on ibuprofen-induced EFHD2 degradation (EFHD2 [2]): incapable of reducing ibuprofen-induced EFHD2 degradation |
| CC(C(=O)O)c1ccc(-c2ccccc2)c(F)c1 (stereo not shown) [flurbiprofen] | effective in suppressing the expression of EFHD2 | more sensitive to the subsequent treatment of cisplatin | – |
| CN1C(C(=O)Nc2ccccn2)=C(O)c2ccccc2S1(=O)=O [piroxicam] | possessed no such effect | – | – |
| N.N.[Cl][Pt][Cl] [cisplatin] | – | – | survival ratio (H1299 cells [3]; H1299^shGFP and H1299^shEFHD2 cells, cisplatin alone, MTT 24 hours): decreased with an increase in the concentration of cisplatin; size of the tumor (H1299 cells [4]): significantly reduce the size of the tumor |
| O=C(O)Cc1ccccc1Nc1c(Cl)cccc1Cl [diclofenac] | possessed no such effect | – | – |
| CO/C1=C\C(C)=C\[C@@H](C)[C@@H](O)[C@@H](C)C/C(C)=C/C=C/[C@H](OC)[C@@H]([C@@H](C)[C@@H](O)[C@H](C)[C@@]2(O)C[C@@H](O)[C@H](C)[C@@H](C(C)C)O2)OC1=O [Baf-A1, bafilomycin A1] | – | – | effect on ibuprofen-induced EFHD2 degradation (EFHD2 [2]): incapable of reducing ibuprofen-induced EFHD2 degradation |
| CC1=C(CC(=O)O)c2cc(F)ccc2/C1=C\c1ccc([S+](C)[O-])cc1 (stereo not shown) [sulindac] | possessed no such effect | – | – |
| COc1ccc2cc([C@H](C)C(=O)O)ccc2c1 [naproxen] | effective in suppressing the expression of EFHD2 | more sensitive to the subsequent treatment of cisplatin | – |
| CC(C)Cc1ccc(C(C)C(=O)O)cc1 (stereo not shown) [ibuprofen] | effective in suppressing the expression of EFHD2 | more sensitive to the subsequent treatment of cisplatin | level of EFHD2 (EFHD2 [1]; various doses of ibuprofen): reduce the level of EFHD2 in a dose-dependent manner; invasion ability (H1299 and F4 cells): attenuated; migration ability (H1299 and F4 cells): attenuated; EFHD2 mRNA levels (EFHD2 mRNA): did not influence EFHD2 mRNA levels; mechanism of EFHD2 degradation (EFHD2 [2]; H1299 cells, 600 μM ibuprofen): both proteasomal- and lysosomal-dependent mechanism; survival ratio, combination with cisplatin (H1299 cells [3]; H1299^shEFHD2 cells vs H1299^shGFP+ibuprofen): comparable to the control cells subjecting to the same treatment; survival ratio, combination with cisplatin (H1299 cells [3]; H1299^shGFP cells, ibuprofen (600 and cisplatin (1, 2, 5, 10 or 20 μM))): lower than those treated with cisplatin alone; susceptibility to cisplatin treatment (A549 cells; A549^pEFHD2 vs A549^pEFHD2+ibuprofen): failed to increase their susceptibilities to cisplatin; susceptibility to cisplatin treatment (A549 cells; A549^pcDNA vs A549^pcDNA+ibuprofen): no enhanced susceptibility; size of the tumor (H1299 cells [4]): more effective than cisplatin |
